Source: PubChem BioAssay (NCI)
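Protocol summary: plate cells (96-well), add compound at 5 concentrations, incubate 48 h, interpolate endpoints linearly. Abbreviation: GI50, concentration required for 50% inhibition of growth. TGI: total growth inhibition.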

Assays:
Assay in all cases: NCI anticancer screen, dose series, 48 h; in the data active = GI50 below about 0.43 µM; inactive = the rest
[1] = system: SK-MEL-2 melanoma
[2] = system: HOP-92 NSCLC
[3] = system: CCRF-CEM leukemia
[4] = system: RPMI-8226 leukemia
[5] = system: SF-268 CNS
[6] = system: UACC-62 melanoma
[7] = system: NCI-H522 lung
[8] = system: SNB-19 CNS
[9] = system: UO-31 renal
[10] = system: LOX IMVI melanoma
[11] = system: SF-539 CNS
[12] = system: SK-MEL-5 melanoma
[13] = system: HT29 colon
[14] = system: BT-549 breast
[15] = system: HCT-15 colon
[16] = system: NCI/ADR-RES ovarian
[17] = system: SK-MEL-28 melanoma
[18] = system: SW-620 colon
[19] = system: M14 melanoma
[20] = system: MALME-3M melanoma
[21] = system: ACHN renal
[22] = system: SN12C renal
[23] = system: T-47D breast
[24] = system: MDA-MB-231 breast
[25] = system: SNB-75 CNS
[26] = system: HCC-2998 colon
[27] = system: KM12 colon
[28] = system: A549 NSCLC
[29] = system: A498 renal
[30] = system: SR leukemia
[31] = system: OVCAR-5 ovarian
[32] = system: HCT-116 colon
[33] = system: SF-295 CNS
[34] = system: TK-10 renal
[35] = system: OVCAR-8 ovarian
[36] = system: IGROV1 ovarian
[37] = system: 786-0 renal
[38] = system: OVCAR-4 ovarian
[39] = system: CAKI-1 renal
[40] = system: U251 CNS
[41] = system: DU-145 prostate
[42] = system: EKVX NSCLC
[43] = system: NCI-H226 lung
[44] = system: HL-60(TB) leukemia
[45] = system: PC-3 prostate
[46] = system: UACC-257 melanoma
[47] = system: COLO 205 colon
[48] = system: MDA-MB-435
[49] = system: HOP-62 NSCLC
[50] = system: K-562 leukemia
[51] = system: HS 578T breast
[52] = system: NCI-H23 lung
[53] = system: NCI-H460 lung
[54] = system: OVCAR-3 ovarian
[55] = system: MCF7 breast
[56] = system: RXF 393 renal

Nn1c2c(c3ccccc3c1=O)C(=O)c1ccccc1-2
33.5 µM: TGI [25]
inactive: GI50 [1] > 50 µM | GI50 [2] > 50 µM | GI50 [3] > 50 µM | GI50 [4] > 50 µM | GI50 [5] 15.7 µM | GI50 [6] > 50 µM | GI50 [7] 30.1 µM | GI50 [8] 20.9 µM | GI50 [9] > 50 µM | GI50 [10] > 50 µM | GI50 [11] 27.9 µM | GI50 [12] > 50 µM | GI50 [13] > 50 µM | GI50 [14] > 50 µM | GI50 [15] > 50 µM | GI50 [16] > 50 µM | GI50 [17] > 50 µM | GI50 [18] > 50 µM | GI50 [19] > 50 µM | GI50 [20] > 50 µM | GI50 [21] > 50 µM | GI50 [22] > 50 µM | GI50 [23] > 50 µM | GI50 [24] > 50 µM | GI50 [25] 11.6 µM | GI50 [26] > 50 µM | GI50 [27] > 50 µM | GI50 [28] > 50 µM | GI50 [29] > 50 µM | GI50 [30] 31 µM | GI50 [31] > 50 µM | GI50 [32] > 50 µM | GI50 [33] 30.1 µM | GI50 [34] 18.1 µM | GI50 [35] 26.7 µM | GI50 [36] > 50 µM | GI50 [37] 37.7 µM | GI50 [38] > 50 µM | GI50 [39] > 50 µM | GI50 [40] 20.5 µM | GI50 [41] > 50 µM | GI50 [42] > 50 µM | GI50 [43] 48.3 µM | GI50 [44] > 50 µM | GI50 [45] > 50 µM | GI50 [46] > 50 µM | GI50 [47] > 50 µM | GI50 [48] > 50 µM | GI50 [49] 24.5 µM | GI50 [50] > 50 µM | GI50 [51] 18.4 µM | GI50 [52] > 50 µM | GI50 [53] 40.5 µM | GI50 [54] > 50 µM | GI50 [55] 20 µM | GI50 [56] 15.7 µM
> 50 µM: TGI [1] | TGI [2] | TGI [3] | TGI [4] | TGI [5] | TGI [6] | TGI [7] | TGI [8] | TGI [9] | TGI [10] | TGI [11] | TGI [12] | TGI [13] | TGI [14] | TGI [15] | TGI [16] | TGI [17] | TGI [18] | TGI [19] | TGI [20] | TGI [21] | TGI [22] | TGI [23] | TGI [24] | TGI [26] | TGI [27] | TGI [28] | TGI [29] | TGI [30] | TGI [31] | TGI [32] | TGI [33] | TGI [34] | TGI [35] | TGI [36] | TGI [37] | TGI [38] | TGI [39] | TGI [40] | TGI [41] | TGI [42] | TGI [43] | TGI [44] | TGI [45] | TGI [46] | TGI [47] | TGI [48] | TGI [49] | TGI [50] | TGI [51] | TGI [52] | TGI [53] | TGI [54] | TGI [55] | TGI [56]
